In patent publication US20150266857A1, “NOVEL 3-INDOL SUBSTITUTED DERIVATIVES, PHARMACEUTICAL COMPOSITIONS AND METHODS FOR USE” (iTeos Therapeutics, priority 2014, published 2015):

Columns and labels:
[1] = molecular target: T1, human recombinant TDO2 enzyme (Homo sapiens, UniProt P48775); assay: Assay for TDO2 enzymatic activity determination; type: biochemical; conditions: human recombinant TDO2, L-Trp 1 mM, kynurenine absorbance at 480 nm
T1 construct: made in house
Protocol: To measure the TDO2 activity, the procedure described in Dolusic et al. J. Med. Chem.; 2011, 54, […] was adapted: the reaction mixture contained (final concentrations) potassium phosphate buffer (50 mM, pH 7.5), ascorbic acid (0.25 M), methylene blue (0.125 μM), catalase (40 units/mL, from bovine liver, Sigma), and human recombinant TDO2 enzyme (prepared as described in Dolusic et al. J. Med. Chem.; 2011, 54, 5320-5334; 0.9 μg) without or with the compounds of the present invention at the indicated concentrations (total volume 112.5 μL). The reaction was initiated by the addition of 37.5 μL of L-Trp (final concentration 1 mM) at room temperature. The reaction was conducted at room temperature during one hour and stopped by the addition of 30 μL of 30% (w/v) trichloroacetic acid.
To convert N-formylkynurenine into kynurenine, the reaction mixture was incubated at 65° C. for 30 min. Then 150 μL of the reaction mixture was mixed with 120 μL of 2.5% (w/v) 4-(dimethylamino)-benzaldehyde in acetic acid and incubated for 5 min at room temperature. Kynurenine concentrations were determined by measuring the absorbance at 480 nm. A standard curve was made with pure kynurenine. The TDO activity was measured as described above using ten serial concentrations of the compounds of the present invention. Data were fitted using the Prism™ software (GraphPad Software, Inc.) using standard parameters.

[2] = molecular target: T2, human glioblastoma A172 cells, naturally expressing hTDO2 (Homo sapiens, UniProt P48775); assay: Cellular assay for TDO2 activity, A172 cells; type: cell-based; conditions: overnight incubation, kynurenine in supernatant
T2 construct: human glioblastoma A172 cells, naturally expressing hTDO2; endogenous in cells; host or cells: human glioblastoma A172 cells (ATCC CRL-1620)
Protocol: The compounds of formula I inhibit the activity of human TDO2 in cells that constitutively express TDO2, such as A172 cells. A172 is a cell line derived from human brain glioblastoma cells. The cells are available from the American Type Culture Collection (ATCC®) as CRL-1620™
The assay (adapted from Pilotte L et al., Proc Natl Acad Sci USA, 2012, 109(7), 2497-502) was performed in 96-well flat bottom plates seeded with human glioblastoma A172 cells, naturally expressing hTDO2 (prepared as described in Tilman et al., Mol Cancer, 2007, 17(6), 80), at a concentration of 1.25×10^4 cells/well in a final volume of 200 μL. To determine TDO, the cells were incubated overnight at 37° C. at 5% CO2 in IMDM (Invitrogen) supplemented with 2% FBS and 2% penicillin/streptomycin in the presence of the compounds of the present invention, at different concentrations.
(§1) The plates were then centrifuged 5 min at 1000 rpm, and 100 μL of the supernatant were collected in a conical plate, 30 uL of TCA 30% were added and a further centrifugated at 3000×g for 10 minutes. 100 μL of the supernatant were collected in a flat bottomed plate and 100 μL of 2% (w/v) 4-(dimethylamino)-benzaldehyde in acetic acid and incubated for 5 min at room temperature. Kynurenine concentrations were determined by measuring the absorbance at 480 nm. A standard curve was made with pure kynurenine. The TDO activity was measured as described above using ten serial concentrations of the compounds of the present invention. Data were fitted using the Prism™ software (GraphPad Software, Inc.) using standard parameters.

[3] = molecular target: T3, murine mastocytoma P815 cells overexpressing hTDO2 (Homo sapiens, UniProt P48775); assay: Cellular assay for TDO2 activity, hTDO2-overexpressing P815 cells; type: cell-based; conditions: P815 cells overexpressing hTDO2, overnight incubation, kynurenine in supernatant
T3 construct: expressed in transfected cells; host or cells: murine mastocytoma P815 cells
Protocol: The assay (adapted from Pilotte L et al., Proc Natl Acad Sci USA, 2012, 109(7), 2497-502) was performed in 96-well flat bottom plates seeded with murine mastocytoma P815 cells overexpressing hTDO2 (prepared as described in Pilotte et al., PNAS, 2012, 109(7), 2497-2502), at a concentration of 5×10^4 cells/well in a final volume of 200 μL. To determine TDO or IDO activity, the cells were incubated overnight at 37° C. at 5% CO2 in IMDM (Invitrogen) supplemented with 2% FBS and 2% penicillin/streptomycin in the presence of the compounds of the present invention, at different concentrations. The cells may be obtained from the American Type Cuylture Collecion [ATCC® TIB-64™ or commercially, e.g., from Sigma-Aldrich or Life Technologies.]
as §1

T1 sequence (P48775 whole entry): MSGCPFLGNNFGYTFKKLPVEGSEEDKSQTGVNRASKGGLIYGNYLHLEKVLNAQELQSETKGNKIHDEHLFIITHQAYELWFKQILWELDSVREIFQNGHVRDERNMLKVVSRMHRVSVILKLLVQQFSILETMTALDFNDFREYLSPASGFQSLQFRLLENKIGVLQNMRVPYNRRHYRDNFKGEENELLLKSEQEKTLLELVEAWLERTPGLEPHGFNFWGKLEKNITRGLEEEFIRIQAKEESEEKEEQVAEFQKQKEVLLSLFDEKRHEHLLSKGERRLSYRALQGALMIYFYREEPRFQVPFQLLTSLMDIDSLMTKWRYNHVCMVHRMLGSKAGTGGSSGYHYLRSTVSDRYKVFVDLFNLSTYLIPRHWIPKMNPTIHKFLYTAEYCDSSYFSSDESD
T3 sequence (P48775 whole entry): as above
T2 sequence (P48775 whole entry): as above

Compound	IC50 [1]	IC50 [2]	IC50 [3]
Fc1ccc2c(-c3ccc4nc(CN5CCNCC5)[nH]c4c3)c[nH]c2c1 [Compound 59, 6-(6-fluoro-1H-indol-3-yl)-2-(piperazin-1-ylmethyl)-1H-benzo[d]imidazole]	–	–	622 nM
O=C1NS(=O)(=O)c2ccc(-c3c[nH]c4cc(F)ccc34)cc21 [Compound 130, 5-(6-fluoro-1H-indol-3-yl)benzo[d]isothiazol-3(2H)-one 1,1-dioxide]	2420 nM	83 nM	–
O=S(=O)(CCN1CCNCC1)NCc1nc2ccc(-c3c[nH]c4cc(F)ccc34)cc2o1 [Compound 123, N-((6-(6-fluoro-1H-indol-3-yl)benzo[d]oxazol-2-yl)methyl)-2-(piperazin-1-yl)ethanesulfonamide]	1360 nM	498 nM	–
NCCc1nc2ccc(-c3c[nH]c4cc(F)ccc34)cc2[nH]1 [Compound 35, 2-(6-(6-fluoro-1H-indol-3-yl)-1H-benzo[d]imidazol-2-yl)ethanamine]	–	–	689 nM
CN(C)CCS(=O)(=O)NCc1nc2ccc(-c3c[nH]c4cc(F)ccc34)cc2o1 [Compound 100, 2-(dimethylamino)-N-((6-(6-fluoro-1H-indol-3-yl)benzo[d]oxazol-2-yl)methyl)ethanesulfonamide]	1460 nM	345 nM	–
CN(C)Cc1nc2ccc(-c3c[nH]c4cc(F)ccc34)cc2[nH]1 [Compound 28, 1-(6-(6-fluoro-1H-indol-3-yl)-1H-benzo[d]imidazol-2-yl)-N,N-dimethylmethanamine]	–	–	1450 nM
Cc1nc2cc(-c3c[nH]c4cc(F)ccc34)ccc2o1 [Compound 48, 5-(6-fluoro-1H-indol-3-yl)-2-methylbenzo[d]oxazole]	–	–	118 nM
NCc1nc2ccc(-c3c[nH]c4cc(F)ccc34)cc2[nH]1 [Compound 27, (6-(6-fluoro-1H-indol-3-yl)-1H-benzo[d]imidazol-2-yl)methanamine]	–	–	678 nM
CNCc1nc2cc(-c3c[nH]c4cc(F)ccc34)ccc2[nH]1 [Compound 44, 1-(5-(6-fluoro-1H-indol-3-yl)-1H-benzo[d]imidazol-2-yl)-N-methylmethanamine]	–	–	345 nM
O=S(=O)(CCN1CCCC1)NCc1nc2ccc(-c3c[nH]c4cc(F)ccc34)cc2o1 [Compound 124, N-((6-(6-fluoro-1H-indol-3-yl)benzo[d]oxazol-2-yl)methyl)-2-(pyrrolidin-1-yl)ethanesulfonamide]	1210 nM	334 nM	–
CC(=O)NCc1nc2ccc(-c3c[nH]c4cc(F)ccc34)cc2[nH]1 [Compound 30, N-((6-(6-fluoro-1H-indol-3-yl)-1H-benzo[d]imidazol-2-yl)methyl)acetamide]	–	–	896 nM
CN1CCN(CCS(=O)(=O)NCc2nc3ccc(-c4c[nH]c5cc(F)ccc45)cc3o2)CC1 [Compound 122, N-((6-(6-fluoro-1H-indol-3-yl)benzo[d]oxazol-2-yl)methyl)-2-(4-methylpiperazin-1-yl)ethanesulfonamide]	2090 nM	344 nM	–
CS(=O)(=O)N1CCC(c2nc3ccc(-c4c[nH]c5cc(F)ccc45)cc3o2)CC1 [Compound 96, 6-(6-fluoro-1H-indol-3-yl)-2-(1-(methylsulfonyl)piperidin-4-yl)benzo[d]oxazole]	2390 nM	589 nM	–
O=S(=O)(CCN1CCOCC1)NCc1nc2ccc(-c3c[nH]c4cc(F)ccc34)cc2o1 [Compound 107, N-((6-(6-fluoro-1H-indol-3-yl)benzo[d]oxazol-2-yl)methyl)-2-morpholinoethanesulfonamide]	2800 nM	677 nM	–
CC(=O)N1CCC(Cn2ncc3ccc(-c4c[nH]c5cc(F)ccc45)cc32)CC1 [Compound 4, 1-(4-((6-(6-fluoro-1H-indol-3-yl)-1H-indazol-1-yl)methyl)piperidin-1-yl)ethanone]	3180 nM	–	–
NC(=O)CCc1nc2cc(-c3c[nH]c4cc(F)ccc34)ccc2[nH]1 [Compound 46, 3-(5-(6-fluoro-1H-indol-3-yl)-1H-benzo[d]imidazol-2-yl)propanamide]	1330 nM	–	–
CS(=O)(=O)CCc1nc2ccc(-c3c[nH]c4cc(F)ccc34)cc2o1 [Compound 101, 6-(6-fluoro-1H-indol-3-yl)-2-(2-(methylsulfonyl)ethyl)benzo[d]oxazole]	1380 nM	153 nM	–
CC(=O)N1CCC(n2cc3cc(-c4c[nH]c5cc(F)ccc45)ccc3n2)CC1 [Compound 24, 1-(4-(5-(6-fluoro-1H-indol-3-yl)-2H-indazol-2-yl)piperidin-1-yl)ethanone]	924 nM	–	–
CS(=O)(=O)NCc1nc2ccc(-c3c[nH]c4ccc(F)cc34)cc2o1 [Compound 128, N-((6-(5-fluoro-1H-indol-3-yl)benzo[d]oxazol-2-yl)methyl)methanesulfonamide]	6070 nM	540 nM	–
Fc1ccc2c(-c3ccc4cnn(C5CCNCC5)c4c3)c[nH]c2c1 [Compound 6, 6-(6-fluoro-1H-indol-3-yl)-1-(piperidin-4-yl)-1H-indazole]	7530 nM	–	–

More lines, in order of falling IC50 [1], values ahead:

IC50 [1]	IC50 [2]	IC50 [3]	Compound
913 nM	223 nM	–	CN1CCN(CCc2nc3ccc(-c4c[nH]c5cc(F)ccc45)cc3o2)CC1 [Compound 105, 6-(6-fluoro-1H-indol-3-yl)-2-(2-(4-methylpiperazin-1-yl)ethyl)benzo[d]oxazole]
835 nM	261 nM	–	NC(=O)NCc1nc2ccc(-c3c[nH]c4cc(F)ccc34)cc2o1 [Compound 102, 1-((6-(6-fluoro-1H-indol-3-yl)benzo[d]oxazol-2-yl)methyl)urea]
814 nM	326 nM	–	O=S(=O)(CCO)NCc1nc2ccc(-c3c[nH]c4cc(F)ccc34)cc2o1 [Compound 106, N-((6-(6-fluoro-1H-indol-3-yl)benzo[d]oxazol-2-yl)methyl)-2-hydroxyethanesulfonamide]
716 nM	284 nM	–	O=C1Cc2cc(-c3c[nH]c4cc(F)ccc34)ccc2N1 [Compound 97, 5-(6-fluoro-1H-indol-3-yl)indolin-2-one]
709 nM	517 nM	–	NC(=O)CCn1ncc2cc(-c3c[nH]c4cc(F)ccc34)ccc21 [Compound 12, 3-(5-(6-fluoro-1H-indol-3-yl)-1H-indazol-1-yl)propanamide]
645 nM	147 nM	–	NC(=O)Cn1ncc2cc(-c3c[nH]c4cc(F)ccc34)ccc21 [Compound 9, 2-(5-(6-fluoro-1H-indol-3-yl)-1H-indazol-1-yl)acetamide]
539 nM	176 nM	–	NC(=O)CCn1cc2cc(-c3c[nH]c4cc(F)ccc34)ccc2n1 [Compound 22, 3-(5-(6-fluoro-1H-indol-3-yl)-2H-indazol-2-yl)propanamide]
489 nM	293 nM	–	Nc1nc2ccc(-c3c[nH]c4cc(F)ccc34)cc2o1 [Compound 98, 6-(6-fluoro-1H-indol-3-yl)benzo[d]oxazol-2-amine]
427 nM	–	–	Fc1ccc2c(-c3ccc4c(cnn4CC4CCNCC4)c3)c[nH]c2c1 [Compound 10, 5-(6-fluoro-1H-indol-3-yl)-1-(piperidin-4-ylmethyl)-1H-indazole]
421 nM	169 nM	–	NC(=O)Cn1cc2cc(-c3c[nH]c4cc(F)ccc34)ccc2n1 [Compound 20, 2-(5-(6-fluoro-1H-indol-3-yl)-2H-indazol-2-yl)acetamide]
